Columns and labels:
[1] = tested on: H1618 and DMS79 cells; assay: IFN response activity assay: pre-treatment, SVV-GFP challenge, flow cytometry; conditions: then SVV-GFP 16 h, both cell lines; for GFP+ cells compared to untreated cells: 4 μM HDAC inhibitor pre-treatment 24 h
[2] = tested on: ANTXR1 KO H446 cells; assay: SVV-Cy5 binding experiment, flow cytometry; parameters: species or system human; conditions: SVV-Cy5 30 min at 37° C.
Method: (§1) SVV was incubated with the amine-reactive Cy5 dye (GE Healthcare) in sodium carbonate buffer (pH 9.3) for 1 h at room temperature (RT). Excess dye was removed by filtration through gel filtration columns (GE Healthcare) in HEPES buffer. Virus aliquots were stored at −80° C. parental, ANTXR1 KO, and TEX2 KO H446 cells were incubated with SVV-Cy5 for 30 min at 37° C. in OptiMEM. The non-permissive SCLC cell line, DMS114, was used as a negative control. […] All compensation and gating were performed with FlowJo analysis software (TreeStar) as described below.

[3] = tested on: DMS114 cells; assay: SVV-Cy5 binding experiment, flow cytometry; parameters: species or system human; conditions: SVV-Cy5 30 min at 37° C.; non-permissive negative control line
Method: as §1

[4] = tested on: TEX2 KO H446 cells; assay: SVV-Cy5 binding experiment, flow cytometry; parameters: species or system human; conditions: SVV-Cy5 30 min at 37° C.
Method: as §1

[5] = tested on: parental H446 cells; assay: SVV-Cy5 binding experiment, flow cytometry; parameters: species or system human; conditions: SVV-Cy5 30 min at 37° C.
Method: as §1

[6] = tested on: SVV; assay: Co-immunoprecipitation of SVV with Fc chimera proteins, Western blot; conditions: Fc protein on Protein G Dynabeads, SVV 2.0×10^10 vp, 2 h at 4° C.
[7] = tested on: SVV-GFP; assay: Blocking experiment: SVV-GFP pre-incubated with Fc protein, then added to parental H446 cells; conditions: 5 μg/mL Fc protein with SVV-GFP (MOI=5) on ice 1 h, then parental H446 cells overnight
[8] = target: T1, Seneca Valley Virus (SVV) (Seneca Valley Virus, UniProt Q155Z9 674-937; Q155Z9 151-434; Q155Z9 435-673; Q155Z9 80-150); assay: co-immunoprecipitation on Protein G Dynabeads, Western blot with SVV rabbit antisera
T1 construct: domain: VP1;domain: VP2;domain: VP3;domain: VP4; also called SVV-001; WT SVV
T1 sequence 1: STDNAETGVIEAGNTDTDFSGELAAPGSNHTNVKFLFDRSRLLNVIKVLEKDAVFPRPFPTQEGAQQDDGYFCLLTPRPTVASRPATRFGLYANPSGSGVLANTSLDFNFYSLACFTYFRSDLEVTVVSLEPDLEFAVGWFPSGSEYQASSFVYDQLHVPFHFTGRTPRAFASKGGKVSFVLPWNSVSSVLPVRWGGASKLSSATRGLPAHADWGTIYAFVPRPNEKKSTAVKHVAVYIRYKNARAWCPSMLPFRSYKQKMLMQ
T1 sequence 2: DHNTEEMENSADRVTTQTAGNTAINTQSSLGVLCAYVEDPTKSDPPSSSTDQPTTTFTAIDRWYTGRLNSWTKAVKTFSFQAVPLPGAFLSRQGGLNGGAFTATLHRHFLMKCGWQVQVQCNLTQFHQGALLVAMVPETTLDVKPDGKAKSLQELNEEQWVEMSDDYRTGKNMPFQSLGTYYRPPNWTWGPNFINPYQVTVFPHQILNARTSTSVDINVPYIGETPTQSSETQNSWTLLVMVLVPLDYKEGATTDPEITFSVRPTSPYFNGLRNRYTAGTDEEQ
T1 sequence 3: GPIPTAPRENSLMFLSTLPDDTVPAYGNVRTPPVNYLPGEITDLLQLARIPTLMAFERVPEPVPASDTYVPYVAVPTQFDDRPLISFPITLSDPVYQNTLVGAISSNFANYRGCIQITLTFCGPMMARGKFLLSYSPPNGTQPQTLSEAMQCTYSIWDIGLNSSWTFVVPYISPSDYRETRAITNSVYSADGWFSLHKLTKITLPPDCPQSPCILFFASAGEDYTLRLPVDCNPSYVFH
T1 sequence 4: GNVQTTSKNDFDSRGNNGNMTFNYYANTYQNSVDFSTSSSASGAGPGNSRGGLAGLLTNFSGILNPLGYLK

## Nc1ccccc1NC(=O)c1ccc(CNC(=O)OCc2cccnc2)cc1 [MS-275]
[1]
  GFP+ cells compared to untreated cells: significant increase

## O=C(CCCCCCC(=O)Nc1ccccc1)NO [SAHA, Vorinostat]
[1]
  GFP+ cells compared to untreated cells: significant increase

## IFNα
[1]; 25 Units/mL IFN pre-treatment 24 h
  SVV permissive, or GFP+ cells: decrease

## SVV-Cy5: WT SVV labeled with the fluorophore Cy5
[2]
  mean fluorescence (MF): 358
[3]
  mean fluorescence (MF): 425
[4]
  mean fluorescence (MF): 2,233
[5]
  mean fluorescence (MF): 2,373

B1: ANTXR1-Fc (protein)
chain: EDGGPACYGGFDLYFILDKSGSVLHHWNEIYYFVEQLAHKFISPQLRMSFIVFSTRGTTLMKLTEDREQIRQGLEELQKVLPGGDTYMHEGFERASEQIYYENRQGYRTASVIIALTDGELHEDLFFYSEREANRSRDLGAIVYCVGVKDFNETQLARIADSKDHVFPVNDGFQALQGIIHSILKKSCIEILAAEPSTICAGESFQVVVRGNGFRHARNVDRVLCSFKINDSVTLNEKPFSVEDTYLLCPAPILKEVGMKAALQVSMNDGLSFISSSVIITTTHCSDGS
modifications: left off: a dimerising Fc or GST
[6]
  SVV viral protein bands co-immunoprecipitated (direct interaction with SVV): viral protein bands were observed
[7]
  GFP+ cells (SVV-GFP infection) by fluorescence microscopy: no detectable GFP+ cells

B2: ANTXR2-Fc chimera (Fc fusion)
chain: QEQPSCRRAFDLYFVLDKSGSVANNWIEIYNFVQQLAERFVSPEMRLSFIVFSSQATIILPLTGDRGKISKGLEDLKRVSPVGETYIHEGLKLANEQIQKAGGLKTSSIIIALTDGKLDGLVPSYAEKEAKISRSLGASVYCVGVLDFEQAQLERIADSKEQVFPVKGGFQALKGIINSILAQSCTEILELQPSSVCVGEEFQIVLSGRGFMLGSRNGSVLCTYTVNETYTTSVKPVSVQLNSMLCPAPILNKAGETLDVSVSFNGGKSVISGSLIVTATECSNG
notes: Bought reagent; also called ANTXR2-Fc chimeric protein; ANTXR2-Fc protein; not shown: Fc part of the chimera; the control isotype is an IgG1 Fc
[8]
  binding result: no binding

B3: ANTXR2-Fc (protein)
chain: B2 chain
modifications: left off: a dimerising Fc or GST
[6]
  SVV viral protein bands co-immunoprecipitated (direct interaction with SVV): absence of an interaction
[7]
  GFP+ cells (SVV-GFP infection) by fluorescence microscopy: high levels of GFP+ cells
